Read-outs that look alike come from different tables or passages of the source. Marks after values point to notes of the source that are not given here. Each block holds one compound with its values, some of them ahead of it.
Legend:
[1] = target: Vacuolar ATPase (bafilomycin sensitive ATPase activity) (Homo sapiens, UniProt P27449+Q13488); test: Vacuolar ATPase inhibition in human osteoclastoma (hOc) microsomal fraction; type: biochemical; details: 30 min, 37° C., read-out: v-ATPase Activity (IC50, μM) hOc
Method: 1.1 Determination of Vacuolar ATPase Inhibition in Human Osteoclastoma (hOc)
Osteoclast-like giant cells isolated from human osteoclastoma are homogenized using a glass-teflon homogeniser (1000 rpm) and the material is centrifuged for 20 minutes at 6000 g. The resultant pellet is resuspended and centrifuged at 100000 g for 60 minutes to sediment the microsomal fraction. The resultant pellet is resuspended in medium at pH 7.4 and stored under liquid nitrogen.
Inhibition of bafilomycin sensitive ATPase activity is assayed by measuring the release of inorganic phosphate during 30 minutes of incubation, at 37° C., of the human osteoclastoma microsomal fraction in 96-well plates. The reaction medium contains 1 mM ATP, 10 mM Hepes-Tris buffer pH 8, 50 mM KCl, 5 μM valinomycin, 5 μM nigericin, 1 mM CDTA-Tris, 100 μM ammonium molybdate, 0.2 M sucrose and the microsomal fraction ([…] protein/ml). The reaction is initiated by adding MgSO4 and terminated, after 30 minutes, by adding 4 volumes of the reagent malachite green, prepared according to Chan K., Anal. Biochem. 157, 375-380, 1986.

[2] = system: HepG2 cells (human hepatic carcinoma); test: Antiproliferative activity, 48 h treatment, ATPlite luminescence assay, HepG2; type: cell-based
Method: HepG2: maintained in EMEM medium+10% FCS.
(§1) 24 hours after seeding, an aliquot (10 μl) of the drug at the various concentrations is added (for each concentration there are 3 replicates). After 48 hours of treatment the antiproliferative effect is evaluated with a luminescence assay (Perkin Elmer Life Sciences ATPlite):
(§2) 50 μl of a lysis solution are added to each well followed by an equal volume of a solution containing luciferase and D-luciferin. The ATP present in all the metabolically active cells brings about the transformation reaction of D-luciferin, catalysed by luciferase, to produce a luminescent signal as described in the following scheme: ATP+D-luciferin+O2→Oxyluciferin+AMP+PPi+CO2+Light
(§3) The luminescence produced (expressed in counts per second, CPS) is measured by means of a microplate scintillation analyzer (Perkin Elmer Life Sciences Top Count).
(§4) Percentage inhibition of luminescence in the treated cells compared to the control is calculated; concentration-response curves are then analysed using Grafit v.5.0.

[3] = system: HT29/Mit cells (mitoxantrone-resistant human colon carcinoma, BCRP overexpression); test: Antiproliferative activity, 72 h treatment, SRB assay, HT29/Mit
Method: HT29 and HT29/Mit (line obtained by prolonged exposure to mitoxantrone, and characterised by overerexpression of BCRP, which confers cross resistance to topotecan, irinotecan and to its metabolite SN38): maintained in McCoy 5A medium+10% FCS.
(§5) The cells (HT29 and HT29/Mit:. 40,000 cells/ml, LoVo, LoVo/Dx and HCT116: 50,000 cells/ml) are seeded in 100 μl of the respective culture media in 96-well plates. 24 hours after seeding, an aliquot (10 μl) of drug at the various concentrations is added. In the samples in which the effect of the combination of two compounds is to be tested the inhibitor is added immediately before the cytotoxic. For each dose or combination of doses/drugs the effect of the treatment is determined in 4-8 replicates.
(§6) After 72 hours of treatment the antiproliferative effect is evaluated using the sulforhodamine B (SRB) assay: the cells are fixed by adding 25 μl of 50% TCA to each well and left for 1 hour at 4° C. After washing them with water and allowing them to dry, 100 μl of 0.4% SRB in 1% acetic acid are added and left for 30 minutes at room temperature. After 4 washes in 1% acetic acid, they are left to dry, then the dye fixed by the proteins is dissolved under basic conditions with 100 μl 10 mM cold Tris and the solution is read using a spectrophotometer at 550 nm.
(§7) Percentage cell growth is calculated as the optical density of treated samples compared to the optical density of controls (untreated cells).
(§8) The Combination Index (C.I.) was determined according to Kern's method, 1988 (who continued from Drewinko B, 1976) (Kern D. H., Cancer Res. 48, 117-121, 1988; Drewinko B., Cancer Biochem. Biophys. 1, 187-195, 1976) by means of the following formula: […], where SFa and SFb are the fractions of cells surviving to treatment with compound a and b, respectively; SFab is the fraction surviving to the combination of compounds a and b.

[4] = system: HT29 cells (human colon carcinoma); test: Antiproliferative activity, 72 h treatment, SRB assay, HT29; type: cell-based; details: 72 h. treatment, read-out: Antiproliferative activity (IC50 ± S.D., μM) HT-29
[5] = system: HCT116 cells (human colon carcinoma); test: Antiproliferative activity, 72 h treatment, SRB assay, HCT116; type: cell-based; details: 72 h. treatment; read-out: Antiproliferative activity (IC50 ± S.D., μM) HCT116
Method: HCT116 maintained in RPMI 1640 medium+10% FCS.
as §5, §6, §7, §8

[6] = system: A2780 cells (human ovarian carcinoma); test: Antiproliferative activity, 48 h treatment, ATPlite luminescence assay, A2780; type: cell-based; details: 48 h. treatment; read-out: Antiproliferative activity (IC50 ± S.D., μM) A2780
Method: as §1, §2, §3, §4

[7] = system: LoVo/Dx cells (doxorubicin-resistant human colon carcinoma, P-glycoprotein overexpression); test: Antiproliferative activity, 72 h treatment, SRB assay, LoVo/Dx; type: cell-based; details: 72 h. treatment; read-out: Antiproliferative activity (IC50 ± S.D., μM) LoVo/Dx
Text: (§9) LoVo and LoVo/Dx (line obtained by prolonged exposure to doxorubicin and characterised by overerexpression of P-glycoprotein, which confers resistance to doxorubicin): maintained in HAM-F12 medium+10% FCS.

[8] = system: LoVo cells (human colon carcinoma); test: Antiproliferative activity, 72 h treatment, SRB assay, LoVo; type: cell-based; details: 72 h. treatment; read-out: Antiproliferative activity (IC50 ± S.D., μM) LoVo
Text: as §9

[9] = system: SH-SY5Y cells (human neuroblastoma); test: Antiproliferative activity, 48 h treatment, ATPlite luminescence assay, SH-SY5Y; type: cell-based; details: 48 h. treatment; read-out: Antiproliferative activity (IC50 ± S.D., μM) SHSY-5Y
Method: (§10) SH-SY5Y and SK-N-BE(2): maintained in HAM-F12 medium+10% FCS.
as §1, §2, §3, §4

[10] = system: SK-N-BE(2) cells (human neuroblastoma); test: Antiproliferative activity, 48 h treatment, ATPlite luminescence assay, SK-N-BE(2); type: cell-based; details: 48 h. treatment; read-out: Antiproliferative activity (IC50 ± S.D., μM) SK-N-BE(2)
Method: as §10, §1, §2, §3, §4

[11] = system: H460 spontaneous lung metastasis; test: H460 xenograft, spontaneous lung metastasis (antimetastatic activity); type: in vivo, athymic Swiss nude mice; details: topotecan 1 mg/kg, compound of example 2 30 mg/kg p.o.
Method: At day 63, tumor-bearing mice were sacrificed by cervical dislocation and their lungs were removed and weighed. Lung lobes were spliced between two glass slides and the metastatic nodules were macroscopically counted against a bright light (Corti C, J. Cancer Res. Clin. Oncol. 122, 154-60, 1996). […] Reading of metastasis was performed by two independent observers, unaware of the experimental group, with an interobserver reproducibility >95%. The metastatic nature of these areas was confirmed by histological analysis of digital images obtained by Image Analysis System software (Delta System, Rome, Italy).

[12] = system: HT29/Mit human colon carcinoma xenografts; test: HT29/Mit human colon carcinoma xenografts, antitumor activity; type: in vivo, athymic Swiss nude mice; details: HT29/Mit xenograft, p.o.; topotecan 15 mg/Kg every 4 days for 3 administrations; compound of example 2 30 mg/kg; alone or combined
Method: Female athymic Swiss nude mice (8-10 weeks old) (Charles River, Calco, Italy) were used for the experiments. The animals were maintained at constant temperature and humidity, and were allowed to eat and drink freely. The experimental protocol was approved by the Ethics Committee for Animal Experimentation of the Istituto Nazionale Tumori of Milan.
The antitumour effectiveness of the compounds of the invention under discussion was tested on athymic mouse models implanted with HT29 and/or HT29/Mit tumour cells: this latter variety is highly resistant to topotecan treatment. The tumour cells were implanted in vivo via subcutaneous injection of 10^7 cells taken from in vitro cultures. Randomized groups of five mice with bilateral subcutaneous tumours were used for the experiment.
Topotecan or other known antitumour agents (dissolved in distilled water or an appropriate solvent) and the compounds of the invention (dissolved in Cremophor EL:ethanol:saline solution in the proportions 5:5:90, or in an appropriate solvent) were administered orally from the third day, alone or in combination, in agreement with a treatment scheme selected in an appropriate manner depending on the type of compound to be studied.
The weight (or volume) of the tumour in treated mice compared to controls is represented graphically on the y-axis against time (x-axis).

[13] = Drug tolerability in H460 tumor-bearing mice (lethal toxicity); details: topotecan 1 mg/kg, compound of example 2 30 mg/kg p.o., 8 weeks
Method: (§11) The effects of the compounds of the invention and/or topotecan on the growth of primary tumors and spontaneous lung metastasis were tested in mice inoculated s.c. in the right flank with H460 ascitic tumor cells (2×10^6/mouse). Each control or drug-treated group included 9-11 mice. The s.c. tumor growth was followed by biweekly measurements of tumor diameters with a Vernier caliper. Drug treatment was delivered orally, for 8 weeks, from day 1. Topotecan was delivered at the dose of 1 mg/kg and compounds of the invention were delivered at the dose of 30 mg/kg; in the combination group the compounds of the invention were delivered almost 1 hour after topotecan treatment. Control mice were solvent-treated orally in parallel with drug treatments.
(§12) Drug efficacy was assessed as mean percentage tumor weight inhibition in drug-treated versus control mice expressed as tumor weight inhibition % (TWI %)=100−(mean tumor weight treated/mean tumor weight control×100), evaluated during and after drug treatment. Drug tolerability was assessed in tumor-bearing mice as either lethal toxicity, i.e., any death in treated mice occurring before any control death, or percentage body weight loss (BWL %)=100−(body weight on day x/body weight on day 1×100), where x represents a day after or during the treatment period.

H460 primary tumor = test: H460 human non-small cell lung carcinoma xenograft, antitumor activity on the primary tumor; type: in vivo, athymic Swiss nude mice; details: H460 s.c., p.o. for 8 weeks, topotecan 1 mg/kg, compound of example 2 30 mg/kg
Method: Female athymic Swiss nude mice (8-10 weeks old) (Charles River, Calco, Italy) were used for the experiments, as described above.
H460 cells were injected i.p. into nude mice, adapted to grow as ascitis and maintained in vivo by i.p. passages (5×10^6 cells/mouse in 0.5 ml PBS) (Pratesi G., Br. J. Cancer 63, 71-74, 1991). Briefly, cells were collected from the donor mice about 7 days after inoculum. After washing, cell number and viability were determined by trypan blue exclusion. Such procedure allowed to obtain a single cell suspension easily available for s.c or i.v. injection.
as §11, §12

[14] = read-out: Antiproliferative activity (IC50 ± S.D., μM) HepG2
[15] = Homo sapiens, HepG2, read-out: Antiproliferative activity (IC50 ± S.D., μM) HepG2
[16] = Homo sapiens, HT-29, 72 h, read-out: Antiproliferative activity (IC50 ± S.D., μM) HT-29/Mit

Vacuolar ATPase (bafilomycin sensitive ATPase activity), sequence (P38606 whole entry): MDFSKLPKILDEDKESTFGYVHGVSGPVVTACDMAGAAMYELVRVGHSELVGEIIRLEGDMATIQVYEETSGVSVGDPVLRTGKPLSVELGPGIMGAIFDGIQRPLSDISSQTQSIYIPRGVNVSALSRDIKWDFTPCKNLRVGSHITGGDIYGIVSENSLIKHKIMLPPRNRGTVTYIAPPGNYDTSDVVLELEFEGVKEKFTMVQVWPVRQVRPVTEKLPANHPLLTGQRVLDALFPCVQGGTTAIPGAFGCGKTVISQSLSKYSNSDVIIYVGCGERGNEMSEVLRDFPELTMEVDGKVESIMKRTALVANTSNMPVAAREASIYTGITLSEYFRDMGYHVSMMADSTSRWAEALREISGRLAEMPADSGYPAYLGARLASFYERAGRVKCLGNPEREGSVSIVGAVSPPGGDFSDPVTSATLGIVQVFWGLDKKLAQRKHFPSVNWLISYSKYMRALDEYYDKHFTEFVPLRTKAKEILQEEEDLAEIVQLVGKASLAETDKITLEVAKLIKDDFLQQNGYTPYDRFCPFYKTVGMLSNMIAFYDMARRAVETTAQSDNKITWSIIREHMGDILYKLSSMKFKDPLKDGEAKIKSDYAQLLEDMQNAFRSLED
Vacuolar ATPase (bafilomycin sensitive ATPase activity), sequence (Q13488 whole entry): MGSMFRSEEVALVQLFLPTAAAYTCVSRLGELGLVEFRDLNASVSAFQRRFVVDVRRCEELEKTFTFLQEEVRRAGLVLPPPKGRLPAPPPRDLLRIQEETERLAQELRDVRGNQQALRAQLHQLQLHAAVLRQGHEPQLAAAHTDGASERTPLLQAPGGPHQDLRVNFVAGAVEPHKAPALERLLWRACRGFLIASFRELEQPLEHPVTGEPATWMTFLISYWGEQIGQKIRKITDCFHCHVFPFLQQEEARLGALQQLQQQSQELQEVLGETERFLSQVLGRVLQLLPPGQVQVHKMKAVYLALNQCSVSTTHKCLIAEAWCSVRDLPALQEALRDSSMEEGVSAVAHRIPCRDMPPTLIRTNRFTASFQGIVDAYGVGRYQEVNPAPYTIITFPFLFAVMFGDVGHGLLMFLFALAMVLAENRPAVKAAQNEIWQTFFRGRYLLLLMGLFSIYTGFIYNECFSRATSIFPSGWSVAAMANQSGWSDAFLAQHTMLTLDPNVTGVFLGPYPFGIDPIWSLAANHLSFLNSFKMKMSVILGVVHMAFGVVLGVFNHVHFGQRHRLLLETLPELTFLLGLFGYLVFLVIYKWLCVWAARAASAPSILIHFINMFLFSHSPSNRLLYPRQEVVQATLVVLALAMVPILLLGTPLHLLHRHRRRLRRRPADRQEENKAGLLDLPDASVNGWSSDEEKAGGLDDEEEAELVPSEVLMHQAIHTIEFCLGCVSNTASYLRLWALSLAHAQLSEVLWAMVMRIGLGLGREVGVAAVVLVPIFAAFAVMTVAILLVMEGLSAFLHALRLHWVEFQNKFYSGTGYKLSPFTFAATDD
Vacuolar ATPase (bafilomycin sensitive ATPase activity), sequence (P27449 whole entry): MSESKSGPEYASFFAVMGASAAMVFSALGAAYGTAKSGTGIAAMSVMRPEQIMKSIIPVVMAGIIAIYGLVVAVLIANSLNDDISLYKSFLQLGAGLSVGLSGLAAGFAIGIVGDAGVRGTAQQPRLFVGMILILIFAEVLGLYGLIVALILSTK

SMILES: CO/C1=C\C(C)=C\[C@@H](C)[C@@H](O)[C@@H](C)C/C(C)=C/C=C/[C@H](OC)[C@@H]([C@@H](C)[C@@H](O)[C@H](C)[C@@]2(O)C[C@@H](O)[C@H](C)[C@@H](C(C)C)O2)OC1=O [Bafilomycin A1, reference compound]
IC50 [1]: 0.0001 µM
IC50 [2, 14]: < 0.006 µM
IC50 ([3]; read-out: Antiproliferative activity (IC50 ± S.D., μM) HT-29/Mit, 72 h. treatment): 0.005 µM
IC50 [4]: 0.003 ± 0.002 µM

SMILES: N.N.[Cl][Pt][Cl] [Cisplatin, reference compound]
IC50 [5]: 5.4 µM
IC50 [6]: 8.1 ± 2.1 µM
IC50 [2, 14]: > 25 µM
IC50 [7]: 0.8 µM
IC50 [4]: 6.8 µM
IC50 [8]: 0.7 µM
IC50 [9]: 7.3 ± 3.3 µM
IC50 [10]: 10.1 ± 3.5 µM

SMILES: CC[C@@]1(O)C(=O)OCc2c1cc1n(c2=O)Cc2cc3c(CN(C)C)c(O)ccc3nc2-1 [Topotecan, reference compound]
Lung No. Metastasis (range) ([11]; day 63): 11 (4-23)
Lung Weight (mg) (mean ± S.D.) ([11]; day 63): 169 ± 16 mg
Lung No. Metastasis (range) ([11]; day 63, listed as topotecan): reduced
Lung metastasis Inhibition % ([11]; inhibition of number of metastasis vs controls): 58%
IC50 ([3]; Homo sapiens, HT-29, 72 h, read-out: IC50 for topotecan alone (FIG. 1 co-treatment experiment)): > 20 µM
IC50 ([4]; Homo sapiens, HT-29): 0.07 ± 0.01 µM
Inhibition of tumour growth [12]: 30-40%
Tox/Tot (any death in treated mice occurring before any control mice) [13]: 0/10
LCK (Log10 Cell Kill) (H460 primary tumor): 0.5
Max TWI (day 56) (Maximal Tumor weight inhibition achieved) (H460 primary tumor): 57* %
Max TWI (day 56) (Maximal Tumor weight inhibition achieved) (H460 primary tumor; listed as topotecan): 57%

More lines, main results first:

IC50 [2, 15]: 1.1 ± 0.1 µM
IC50 ([4]; Homo sapiens, HT-29): 3.3 ± 0.4 µM
SMILES: CO/C(=C\C=C\c1cc2cc(Cl)c(Cl)cc2[nH]1)C(=O)NC1CC(C)(C)N(C)C(C)(C)C1 [Example 1]
IC50 [3, 16]: 1 µM

IC50 [2, 15]: 0.71 ± 0.01 µM
IC50 ([4]; Homo sapiens, HT-29): 0.56 ± 0.26 µM
SMILES: CCOc1cc(C(=O)NC2CC(C)(C)NC(C)(C)C2)ccc1-c1nc2cc(Cl)c(Cl)cc2[nH]1 [Example 3]
IC50 [3, 16]: 0.27 µM

IC50 ([4]; Homo sapiens, HT-29): 4.7 µM
SMILES: CCOc1cc(C(=O)NC2CCNCC2)ccc1-c1cc2cc(Cl)c(Cl)cc2[nH]1 [Example 4]
IC50 [3, 16]: 3.6 µM

IC50 ([4]; Homo sapiens, HT-29): 3.8 µM
SMILES: CCOc1cc(C(=O)NC2CCN(C)CC2)ccc1-c1cc2cc(Cl)c(Cl)cc2[nH]1 [Example 5]
IC50 [3, 16]: 2.3 µM

IC50 [2, 15]: 0.92 ± 0.01 µM
IC50 ([4]; Homo sapiens, HT-29): 4.7 µM
SMILES: COc1cc(C(=O)N(C)C2CC(C)(C)NC(C)(C)C2)ccc1-c1cc2cc(Cl)c(Cl)cc2[nH]1 [Example 6]
IC50 [3, 16]: 3.3 µM

Reference: patent US20070299084A1, “Indole Derivatives Useful for Treating Resistance to Antitumor Agents” (NIKEM RESE S.R.L., priority 2004, published 2007)
